TGI and GI50 data for eleven compounds are collected here from PubChem BioAssay (NCI).

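Values below derive from 48-hour exposures of cells grown in 96-well plates, with endpoints linearly interpolated between the two concentrations bracketing the appropriate inhibition level. Here, GI50 denotes the concentration required for 50% inhibition of growth. TGI is the concentration that stops growth completely.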

As a reminder, the TGI is the concentration giving total growth inhibition. Higher therefore signals less potent growth arrest. A word on the GI50: it is the concentration that inhibits growth by half.

Among the test systems are EKVX NSCLC; NCI/ADR-RES ovarian; TK-10 renal; COLO 205 colon; UACC-62 melanoma; KM12 colon; NCI-H226 lung; HCC-2998 colon; CAKI-1 renal.
What all share (assay): DTP human tumour cell line panel, 48 h

Regarding `Cc1ccc(S(=O)(=O)OC2CCN(C)CC2)cc1`, the TGI was greater than 100 µM with EKVX NSCLC; greater than 100 µM in the assay on NCI/ADR-RES ovarian; greater than 100 µM in the assay on TK-10 renal; 42.3 µM in the assay on COLO 205 colon; greater than 100 µM with UACC-62 melanoma.

Regarding `C=CC[n+]1c(/C=C/C=C2\N(C)c3ccccc3C2(C)C)sc2ccc(OC)cc21`, the GI50 is 0.264 µM with EKVX NSCLC; 7.76 µM with NCI/ADR-RES ovarian; 0.235 µM in the assay on TK-10 renal; 0.249 µM in the assay on KM12 colon; 0.282 µM in the assay with NCI-H226 lung; 0.188 µM in the assay on COLO 205 colon. Also, the concentration for 50% growth inhibition (GI50) with UACC-62 melanoma is 0.195 µM; in the assay on HCC-2998 colon, 0.258 µM. For the same compound, the TGI came to 15.5 µM in the assay on EKVX NSCLC; 69.2 µM with NCI/ADR-RES ovarian; 14.8 µM in the assay on TK-10 renal; 11.7 µM with KM12 colon; 13 µM in the assay on NCI-H226 lung; 0.591 µM in the assay with COLO 205 colon. For the same compound, the TGI with UACC-62 melanoma came out at 2.65 µM; in the assay with HCC-2998 colon it was 21.3 µM.

On to `OC(c1cccc(-n2ccc(C(F)(F)F)n2)c1)c1cnccc1NC1CCCCCC1` (stereo not given), for which the GI50 in the assay with EKVX NSCLC is 1.66 µM; with CAKI-1 renal, 1.57 µM; in the assay on NCI/ADR-RES ovarian, 1.81 µM; in the assay with TK-10 renal, 1.77 µM; with KM12 colon, 1.87 µM; with UACC-62 melanoma, 1.74 µM. The GI50 in the assay with HCC-2998 colon is 1.61 µM. The total growth inhibition concentration (TGI) amounted to 3.16 µM in the assay with EKVX NSCLC; 2.96 µM in the assay with CAKI-1 renal; 3.35 µM with NCI/ADR-RES ovarian; 3.49 µM in the assay on TK-10 renal; 3.54 µM in the assay with KM12 colon; 3.14 µM in the assay on UACC-62 melanoma. The concentration for total growth inhibition (TGI) in the assay on HCC-2998 colon was 3.03 µM.

`O=C(O)CCNc1ccccc1C(=O)O`: the TGI in the assay on EKVX NSCLC, in the assay with CAKI-1 renal, in the assay on NCI/ADR-RES ovarian, with TK-10 renal, with KM12 colon and in the assay with NCI-H226 lung was greater than 100 µM each time. Moreover, the total growth inhibition concentration (TGI) with COLO 205 colon and in the assay with UACC-62 melanoma was greater than 100 µM in each case.

Take `CN(Cc1cnc2nc(N)nc(N)c2n1)c1ccc(C(=O)NC(CCC(=O)O)C(=O)O)cc1C(F)(F)F` (stereo not given): the concentration for total growth inhibition (TGI) in the assay with EKVX NSCLC is greater than 100 µM; in the assay with CAKI-1 renal, greater than 100 µM; in the assay with NCI/ADR-RES ovarian it was greater than 100 µM; in the assay with TK-10 renal it was greater than 100 µM; with KM12 colon, greater than 100 µM; in the assay with NCI-H226 lung it was greater than 89 µM. For the same compound, the TGI in the assay on COLO 205 colon and in the assay with HCC-2998 colon was greater than 100 µM throughout.

Take `FC(F)(F)Oc1cccc(-c2cnc3ccc(-c4ccncc4)nn23)c1`: the GI50 was 1.39 µM in the assay on EKVX NSCLC; 0.417 µM in the assay with CAKI-1 renal; 2.09 µM with NCI/ADR-RES ovarian; 1.14 µM with TK-10 renal; 0.662 µM in the assay with KM12 colon; 1.5 µM in the assay on COLO 205 colon. Also, the GI50 with UACC-62 melanoma was 1.01 µM; in the assay with HCC-2998 colon, 4.47 µM. The total growth inhibition concentration (TGI) with EKVX NSCLC is greater than 100 µM; in the assay on CAKI-1 renal, 4.11 µM; with NCI/ADR-RES ovarian it was 95.5 µM; with TK-10 renal, 9.76 µM; in the assay on KM12 colon, greater than 100 µM; in the assay with COLO 205 colon it was 16.7 µM. Further, the TGI in the assay on UACC-62 melanoma is 6.17 µM; in the assay on HCC-2998 colon, greater than 100 µM.

As for `N=C(N)c1ccc(OCc2cccc(COc3ccc(C(=N)N)cc3)c2)cc1`, the GI50 in the assay with EKVX NSCLC is 2.85 µM; in the assay on CAKI-1 renal it was 11.4 µM; in the assay on NCI/ADR-RES ovarian it was greater than 100 µM; in the assay with TK-10 renal, 7.61 µM; with NCI-H226 lung, 7.2 µM; in the assay on COLO 205 colon, 15.1 µM. Also, the GI50 was 2.17 µM in the assay with UACC-62 melanoma and 11.4 µM with HCC-2998 colon. Besides, the concentration for total growth inhibition (TGI) with EKVX NSCLC was 8.25 µM; in the assay with CAKI-1 renal it was 27.2 µM; with NCI/ADR-RES ovarian, greater than 100 µM; with TK-10 renal it was 21 µM; with NCI-H226 lung, 23.1 µM; with COLO 205 colon it was 40.3 µM. Besides, the total growth inhibition concentration (TGI) with UACC-62 melanoma amounted to 7.99 µM; in the assay with HCC-2998 colon it was 33.2 µM.

On to `Nc1ccc2c(c1)C(=O)C(=O)c1c-2nc2ccccn12`, for which the GI50 was 2.04 µM in the assay on EKVX NSCLC; 1.85 µM in the assay on NCI/ADR-RES ovarian; 15.3 µM in the assay with TK-10 renal; 2.13 µM with KM12 colon; 1.72 µM in the assay on NCI-H226 lung; 10.8 µM in the assay with COLO 205 colon. For the same compound, the GI50 in the assay on UACC-62 melanoma was 0.266 µM; with HCC-2998 colon it was 2.22 µM. Further, the TGI came to 4.52 µM in the assay with EKVX NSCLC; 5.98 µM in the assay with NCI/ADR-RES ovarian; 29.3 µM in the assay on TK-10 renal; 6.8 µM with KM12 colon; 3.75 µM in the assay on NCI-H226 lung; 26.6 µM in the assay on COLO 205 colon. Besides, the concentration for total growth inhibition (TGI) in the assay on UACC-62 melanoma stood at 0.782 µM; with HCC-2998 colon, 4.09 µM.

Consider `O=C(Nc1ccc(Cl)c(Cl)c1)c1cccc(NC2=C(Cl)C(=O)N(Cc3ccccc3)C2=O)c1`, for which the GI50 with EKVX NSCLC was 20.2 µM; in the assay with CAKI-1 renal, 53.9 µM; in the assay with NCI/ADR-RES ovarian, 24.4 µM; in the assay with TK-10 renal, greater than 100 µM; with KM12 colon, 69 µM; in the assay with NCI-H226 lung it was 35.5 µM. The GI50 was greater than 100 µM in the assay with COLO 205 colon and 37.1 µM in the assay on UACC-62 melanoma. The TGI with EKVX NSCLC was 64.5 µM; in the assay with CAKI-1 renal it was greater than 100 µM; with NCI/ADR-RES ovarian it was 88.9 µM; with TK-10 renal, greater than 100 µM; in the assay with KM12 colon, greater than 100 µM; in the assay on NCI-H226 lung it was greater than 100 µM. The concentration for total growth inhibition (TGI) with COLO 205 colon and in the assay with UACC-62 melanoma was greater than 100 µM throughout.

On to `Cc1nc(-c2cccc(Nc3nc(-c4ccc(Cl)cc4)cs3)c2)cs1`, for which the GI50 in the assay with EKVX NSCLC is 8.6 µM; in the assay with CAKI-1 renal, 11.8 µM; in the assay with NCI/ADR-RES ovarian, 5.14 µM; with TK-10 renal, 8.31 µM; in the assay with KM12 colon it was 8.4 µM; in the assay with COLO 205 colon, 11.9 µM. In addition, the GI50 in the assay with UACC-62 melanoma was 6.83 µM. For the same compound, the TGI with EKVX NSCLC turned out to be 17.2 µM; in the assay with CAKI-1 renal, 24.6 µM; with NCI/ADR-RES ovarian, 12.2 µM; with TK-10 renal it was 17.8 µM; with KM12 colon, 20 µM; with COLO 205 colon it was 31.1 µM. The same compound displayed a TGI in the assay with UACC-62 melanoma of 15 µM.

As for `COc1cc(NS(C)(=O)=O)ccc1Nc1c2ccc([N+](=O)[O-])cc2nc2c(C)cccc12`, the GI50 with CAKI-1 renal is 1.13 µM; with NCI/ADR-RES ovarian, 6.95 µM; with TK-10 renal it was 2.07 µM; in the assay with KM12 colon it was 0.814 µM; in the assay with NCI-H226 lung, 0.338 µM; with COLO 205 colon, 2.05 µM. Further, the figures for the GI50 in the assay with UACC-62 melanoma and in the assay on HCC-2998 colon were 0.377 µM and 2.07 µM, respectively. Further, the TGI in the assay on CAKI-1 renal was 6.94 µM; with NCI/ADR-RES ovarian it was 35.1 µM; in the assay on TK-10 renal, 9.35 µM; with KM12 colon, 8.15 µM; in the assay with NCI-H226 lung, 4.16 µM; in the assay on COLO 205 colon, 13.5 µM. In addition, the concentration for total growth inhibition (TGI) in the assay on UACC-62 melanoma was 11.1 µM; with HCC-2998 colon it was 7.28 µM.
